Laboratory results as given in patent US7371871B2, “Inhibitors of glutaminyl cyclase” (Probiodrug AG, priority 2003, dated 2008).

Assays:
human QC [1] = molecular target: T1, human QC (Homo sapiens, UniProt Q16769); conditions: Busby, W. H. J. et al. 1987; cited from earlier work
human QC [2] = molecular target: T1, human QC; experiment: Inhibitor assay of glutaminyl cyclase (QC), determination of Ki-values; conditions: for inhibition of human QC (in words): Example 5
Method: Excitation/emission wavelengths were 320/410 nm. The assay reactions were initiated by addition of glutaminyl cyclase.
Reactions were carried out at 30° C. utilizing the NOVOStar reader for microplates (BMG labtechnologies). […] Excitation/emission wavelengths were 380/460 nm. The assay reactions were initiated by addition of glutaminyl cyclase. […] The kinetic data were evaluated using GraFit sofware.
The initial velocities were evaluated and the enzymatic activity was determined from a standard curve of ammonia under assay conditions. All samples were measured at 30° C., using either the [sequence]luor Plus or the Sunrise (both from TECAN) reader for microplates. Kinetic data was evaluated using GraFit software.
For inhibitor testing, the sample composition was the same as described above, except of the putative inhibitory compound added. […] For detailed investigations of the inhibition and determination of Ki-values, influence of the inhibitor on the auxiliary enzymes was investigated first.

T1 sequence (Q16769 29-361): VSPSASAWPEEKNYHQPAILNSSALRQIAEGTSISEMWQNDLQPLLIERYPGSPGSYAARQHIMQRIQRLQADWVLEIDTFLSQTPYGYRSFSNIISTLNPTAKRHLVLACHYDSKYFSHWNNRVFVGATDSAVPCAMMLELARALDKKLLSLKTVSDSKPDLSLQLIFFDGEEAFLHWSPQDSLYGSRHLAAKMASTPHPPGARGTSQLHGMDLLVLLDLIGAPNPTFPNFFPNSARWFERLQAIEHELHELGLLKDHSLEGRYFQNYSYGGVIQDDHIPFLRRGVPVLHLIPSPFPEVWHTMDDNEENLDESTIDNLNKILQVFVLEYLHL

Compound | inhibition of human QC detected (human QC [1]) | inhibition of human QC (in words) (human QC [2]) | other results
c1cnc2c(c1)ccc1cccnc12 [1,10-phenanthroline] | inhibition |  | 
Cn1cnc(CCN)c1 [1-methyl-4-(β-amino-ethyl)-imi-dazole] |  | complete loss of inhibitory activity | 
c1ccc(-n2ccnc2)cc1 [1-phenylimidazole] |  | inactive | 
CC(=O)c1ccc(NC(=S)NCCCn2ccnc2)cc1 [Example 9] |  |  | Ki (human QC [2]): 1790 nM
reduced 6-methylpterin | inhibition |  | 
